Consider 14 compounds from patent publication US20200085828A1, “PHOSPHODIESTERASE INHIBITORS AND METHODS OF MICROBIAL TREATMENT” (Mavupharma, Inc., priority 2016, published 2020).

In test [1] the test system is cGAMP activated THP-1 cells. In words: PDE inhibitor library screen on cGAMP activated THP-1 cells, IFNβ ELISA. The format is cell-based, human. The conditions noted are these: 10 μM compound, suboptimal 2′,3′-cGAMP, 24 hours. On the procedure:
THP-1 Cell Activation and Screening of Test Compounds: • (a) THP-1 cells from bulk cultures were counted and suspended in RPMI 1640, 20% FBS, 2.5 mM L-alanyl-L-glutamine at a concentration of 5.5×10^6 cells/mL. The THP-1 cells were subsequently seeded into 96 well round bottom plates—volume of 180 μL/well (1×10^6 cells per well), and the plate was incubated for 1 hour at 37° C., 5% CO2. • (b) Test compounds comprising known phosphodiesterase inhibitors (PDEs), were screened in triplicate (N1, N2, N3) on THP-1 cells. For compound screening, test compounds were assayed at a final concentration of 10 μM. A 200 μM (0.2 mM) working solution of each compound was prepared by diluting 10 mM DMSO stock solutions of each compound in media at a dilution of 50:1 (1640, 20% FBS, 2.5 mM L-alanyl-L-glutamine). […]
(i) Cell culture supernatants were harvested by centrifuging the plates at 200×g for 10 minutes. Cell culture supernatants were then transferred to a clean plate and stored at −80° C. until ready to analyze for IFNβ levels. • (j) IFNβ levels in cell culture supernatants were determined by ELISA according to the manufacturer's instructions (VeriKine Human IFNβ Assay). • (k) The interpolated data was normalized to vehicle control, or unstimulated control, and analyzed.

The target of test [2] is T1, human recombinant ENPP1 (Homo sapiens, UniProt P22413).
T1 sequence (P22413 1-925): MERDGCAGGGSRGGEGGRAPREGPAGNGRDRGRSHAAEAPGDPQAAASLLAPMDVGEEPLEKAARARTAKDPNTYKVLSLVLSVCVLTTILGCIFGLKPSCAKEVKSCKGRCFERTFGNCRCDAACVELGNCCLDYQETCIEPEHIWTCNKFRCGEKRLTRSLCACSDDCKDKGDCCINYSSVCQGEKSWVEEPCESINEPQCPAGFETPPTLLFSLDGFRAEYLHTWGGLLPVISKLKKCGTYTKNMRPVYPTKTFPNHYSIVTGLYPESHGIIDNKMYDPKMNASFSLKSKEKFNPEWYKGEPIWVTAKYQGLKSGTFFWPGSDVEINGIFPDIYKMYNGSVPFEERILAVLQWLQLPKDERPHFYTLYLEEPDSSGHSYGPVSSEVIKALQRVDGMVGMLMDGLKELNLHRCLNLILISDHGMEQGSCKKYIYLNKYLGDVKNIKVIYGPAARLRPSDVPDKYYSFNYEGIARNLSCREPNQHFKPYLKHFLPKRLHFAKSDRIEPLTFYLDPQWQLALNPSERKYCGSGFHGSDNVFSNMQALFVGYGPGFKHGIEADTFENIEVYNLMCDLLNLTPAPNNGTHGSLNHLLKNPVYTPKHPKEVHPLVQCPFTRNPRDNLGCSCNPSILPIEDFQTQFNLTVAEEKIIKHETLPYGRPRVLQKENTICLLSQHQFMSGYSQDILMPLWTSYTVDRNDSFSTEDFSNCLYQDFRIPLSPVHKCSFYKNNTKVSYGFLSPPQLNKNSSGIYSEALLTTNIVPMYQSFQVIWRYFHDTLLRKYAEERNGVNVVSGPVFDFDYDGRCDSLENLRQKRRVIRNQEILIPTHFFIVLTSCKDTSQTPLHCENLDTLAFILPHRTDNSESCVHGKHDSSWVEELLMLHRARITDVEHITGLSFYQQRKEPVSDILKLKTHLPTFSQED
As to the kind of experiment: ENPP1 inhibition with 2′,3′-cGAMP substrate (AMP-Glo assay). Particulars: for inhibition at 1 µM: at 1 μM compound; for inhibition at 1 µM / inhibition at 10 µM: read-out: Inhibition of ENPP1 with cGAMP as the Substrate; for inhibition at 10 µM: at 10 μM compound; for Ki: 20 μM 2′3′cGAMP, Ki from IC50 by Cheng-Prusoff, Km 15 μM. The format is biochemical. The protocol:
The AMP-Glo™ Assay Kit contains two reagents that are added sequentially. The first converts the 5′-AMP produced in the reaction to 5′ADP. The second converts the 5′-ADP to 5′ATP and reacts the 5′-ATP with the luciferase/luciferin pair to produce the luminescence signal. […] Inhibitors are added at final concentrations ranging between 10 μM and 30 pM depending on the compound. Duplicate wells are run at each inhibitor concentration. The final assay volume is 18 μL and human recombinant ENPP1 is present at 5 ng/well. The assay is initiated by the addition of substrate (20 μM 2′3′cGAMP final concentration), and incubated for 30 minutes at 37° C. To stop the reaction, 12 μl of AMP-Glo reagent I is added and the plate is incubated for 60 minutes at room temperature. 25 μl of AMP-detection reagent is then added and the wells are again incubated for 60 minutes at room temperature. The luminescence signal is then measured using a plate-reading luminometer. Each assay plate also includes wells with no enzyme added (MIN OD) and wells with no inhibitor added (MAX OD). The percent inhibition of ENPP1 for each sample is then calculated as: […]
IC50 values of compounds were calculated by entering the percent inhibition values into a sigmoidal variable slope nonlinear regression model in GraphPad Prism® software. IC50 values were converted to Ki values using the Cheng-Prusoff equation2 where the Km was 15 μM, based on internal determinations.

The target of test [3] is T1, human recombinant ENPP1. In words: ENPP1 inhibition with AMP-pNP (ATP analog) substrate, absorbance at 405 nm. The test is classed as biochemical. The conditions noted are these: 300 μM AMP-pNP; Ki from IC50 by Cheng-Prusoff, Km 151 μM. The protocol:
The ENPP1 assay with AMP-pNP substrate is conducted in a buffer containing 50 mM Tris-HCl (pH 8.5)/250 mM NaCl/0.5 mM CaCl2/1 μM ZnCl2/0.1% DMSO. Inhibitors are added at final concentrations ranging between 10 μM and 30 pM depending on the compound. Duplicate wells are run at each inhibitor concentration. The final assay volume is 40 μL and human recombinant ENPP1 is present at 60 ng/well. The assay is initiated by the addition of substrate (300 μM AMP-pNP final concentration), and incubated for 20 minutes at 37° C. […] Each assay plate also includes wells with no enzyme added (MIN OD) and wells with no inhibitor added (MAX OD). The percent inhibition of ENPP1 for each sample is then calculated as: […]
IC50 values of compounds were calculated by entering the percent inhibition values into a sigmoidal variable slope nonlinear regression model in GraphPad Prism® software.

A value given as a limit tells only on which side of the number the result lay.

On to `O=c1cc(-c2ccc(O)c(O)c2)oc2cc(O)cc(O)c12` [Compound 1], for which, in test [1], the “augmentation of cGAMP mediated IFNβ production” value was “augmentation of cGAMP mediated IFNβ production”.

Turning to `COc1ccc(NC(=O)CSc2nc3c(N)ncnc3[nH]2)cc1OC` [Compound 2], at human recombinant ENPP1 [2], the inhibition at 1 µM was found to be 99% and the inhibition at 10 µM is 99%.

On to `COc1cc2ncnc(N3CCC(CCNS(N)(=O)=O)CC3)c2cc1OC` [Compound 3], for which, on human recombinant ENPP1 [2], the inhibition at 1 µM is 99% and the inhibition at 10 µM amounted to 99%. The “augmentation of cGAMP mediated IFNβ production” value in test [1] is “augmentation of cGAMP mediated IFNβ production”.

As for `COc1ccc(CC(=O)CCC2=Nc3c(N)ccnc3C2)cc1OC` [Compound 4], at human recombinant ENPP1 [2] (Ki (AMP-pNP)/Ki (2′3′-cGAMP)), the “Substrate Selectivity Ki Ratio AMP-pNP/2′3′cGAMP” value was over 37500 and the “selectivity for inhibition of cGAMP over AMP-pNP hydrolysis by ENPP1” value was > 37,500 fold.

Turning to `COc1cc2ncnc(N3CCC(CCN)CC3)c2cc1OC` [Compound 5], the Ki on human recombinant ENPP1 [2] turned out to be 46.7 nM.

Turning to `COc1cc2nccc(Oc3ccc(CS(N)(=O)=O)cc3)c2cc1OC` [Compound 6], the “Substrate Selectivity Ki Ratio AMP-pNP/2′3′cGAMP” value on human recombinant ENPP1 [2] (Ki (AMP-pNP)/Ki (2′3′-cGAMP)) is on record as over 325.

With `Cn1cnc2cccc(N3CCC(CCCS(C)(=O)=O)CC3)c21` [Compound 9], on human recombinant ENPP1 [2] (Ki (AMP-pNP)/Ki (2′3′-cGAMP)), the “Substrate Selectivity Ki Ratio AMP-pNP/2′3′cGAMP” value is over 128.

For the compound `CCN(C)S(=O)(=O)NCCC1CCN(c2ncnc3cc(OC)c(OC)cc23)CC1` [Compound 12], the Ki at human recombinant ENPP1 [2] turned out to be 336 nM.

In the case of `COc1cc2nccc(Nc3ccc(NS(=O)(=O)c4ccccc4)cc3)c2cc1OC` [Compound 14], the figures for the Ki at human recombinant ENPP1 [3] and at human recombinant ENPP1 [2] were 1830 nM and 29.1 nM, respectively.

Turning to `COc1cc2ncn(-c3ccc(CNS(N)(=O)=O)cc3)c2cc1OC` [Compound 16], the Ki on human recombinant ENPP1 [3] stood at 1460 nM; at human recombinant ENPP1 [2], 27.1 nM.

As for `COc1cc2ncnc(-c3ccc4c(c3)CN(S(N)(=O)=O)CC4)c2cc1OC` [Compound 21], the Ki at human recombinant ENPP1 [3] came to 65.2 nM; at human recombinant ENPP1 [2] it was 1.8 nM.

`COc1cc2nc(-c3cccnc3)nc(N3CCC(CCNS(C)(=O)=O)CC3)c2cc1OC` [Compound 23]: the “Substrate Selectivity Ki Ratio AMP-pNP/2′3′cGAMP” value on human recombinant ENPP1 [2] (Ki (AMP-pNP)/Ki (2′3′-cGAMP)) was over 23.9.

Turning to `COc1cc2ncnc(N3CCC4(CC3)CN(S(N)(=O)=O)C4)c2cc1OC` [Compound 24], the “Substrate Selectivity Ki Ratio AMP-pNP/2′3′cGAMP” value at human recombinant ENPP1 [2] (Ki (AMP-pNP)/Ki (2′3′-cGAMP)) came to 18.7.

Take `COc1cc2nccc(Oc3ccc(NS(=O)(=O)c4ccccc4)cc3)c2cc1OC` [Compound 25]: the Ki at human recombinant ENPP1 [2] was found to be 44 nM.
